Experimental findings from US8431704B2, “Quinoline or isoquinoline substituted P2X7 antagonists” (Janssen Pharmaceutica NV, priority 2008, dated 2013) are described below.

This test concerns the target T1, hP2X7 (Homo sapiens, UniProt Q99572).
T1 construct: expressed in transfected cells; host or cells: 1321N1 astrocytoma cells
T1 sequence (Q99572 1-595): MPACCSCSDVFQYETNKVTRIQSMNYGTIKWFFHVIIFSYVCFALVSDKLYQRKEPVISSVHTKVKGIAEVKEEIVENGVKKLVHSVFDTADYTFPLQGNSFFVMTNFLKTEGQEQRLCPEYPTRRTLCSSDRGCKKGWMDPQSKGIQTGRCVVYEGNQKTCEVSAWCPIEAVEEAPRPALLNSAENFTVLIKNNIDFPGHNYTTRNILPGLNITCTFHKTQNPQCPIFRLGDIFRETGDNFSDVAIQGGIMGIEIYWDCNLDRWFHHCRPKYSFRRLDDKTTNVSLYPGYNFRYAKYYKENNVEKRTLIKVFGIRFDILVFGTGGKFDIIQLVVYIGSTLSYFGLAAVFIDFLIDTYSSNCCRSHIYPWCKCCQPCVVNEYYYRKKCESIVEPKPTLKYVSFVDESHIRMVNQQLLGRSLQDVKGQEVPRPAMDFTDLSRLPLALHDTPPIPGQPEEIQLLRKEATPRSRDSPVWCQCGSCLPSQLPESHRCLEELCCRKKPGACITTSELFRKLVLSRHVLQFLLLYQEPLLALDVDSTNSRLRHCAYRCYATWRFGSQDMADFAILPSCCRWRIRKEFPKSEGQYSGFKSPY
Briefly: P2X7 antagonism: ligand-induced Ca2+ flux in 1321N1 astrocytoma cells overexpressing hP2X7. Particulars: pIC50 = -log(IC50), read-out: hP2RX7pIC50 (mean pIC50 values) (converted). It counts as cell-based. How it is done:
Extracellular binding of ATP to P2X7 that is expressed in the cell-membrane opens the ligand gated cation channel and allows Ca^2+ entry into the cell. This ligand-induced Ca^2+ flux was measured in 1321N1 astrocytoma cells overexpressing hP2X7 for the compounds of the present invention.
The calcium assay kit used (Molecular Devices, R8090), provides a Ca^2+ sensitive dye together with a quenching dye. However, no specifications are given by the manufacturer. The kit most likely consists of a membrane permeable acetoxymethyl (AM) ester of a fluorescent Ca^2+ indicator, such as fluo-4 or fluo-3. Upon cellular uptake, the AM esters get cleaved by esterases, liberating the Ca^2+-sensitive dye which can then bind calcium. The dyes have an absorption spectrum compatible with excitation at 488 nm by argon laser sources and a large fluorescence intensity increase in response to Ca^2+ binding without an accompanying spectral shift. Emission wavelength is in the range of 510-560 nm.
The fluorescence, and thus the changes in intracellular [Ca^2+] in the 1321N1 cells was monitored in time before and after addition of the agonist. The effect of the antagonist was measured as % control and as IC50.
(In general: Calcium flux is commonly read through the fluorescence of an indicator in the cells.)
For the compound `CN(C)c1ncc(C(CNC(=O)c2cccc3nc(NC4CC4)ccc23)N2CCOCC2)cn1` (stereo not shown) [Compound 233], the IC50 is 148 nM.
Regarding `O=C(NCC(c1cnc(OCC2CC2)nc1)N1CCC(F)(F)CC1)c1cccc2nc(NCC3CC3)ccc12` (stereo not shown) [Compound 234], the IC50 was 26.9 nM.
The result for `CC(C)Oc1ncc(C(CNC(=O)c2cccc3nc(N4CCOCC4)ccc23)N2CCC(F)(F)CC2)cn1` (stereo not shown) [Compound 235] reads 56.2 nM; that for `CC(C)Oc1ncc(C(CNC(=O)c2cccc3nc(NC4CC4)ccc23)N2CCC(F)(F)CC2)cn1` (stereo not shown) [Compound 236], 34.7 nM; that for `O=C(NCC(c1cnc(-c2ccccc2)nc1)N1CCC(F)(F)CC1)c1cccc2nc(NCC3CC3)ccc12` (stereo not shown) [Compound 237], 89.1 nM.
For `O=C(NCC(c1cnc(C2CCCC2)nc1)N1CCC(F)(F)CC1)c1cccc2nc(NC3CC3)ccc12` (stereo not shown) [Compound 238], the IC50 is 38.9 nM.
Turning to `O=C(NCC(c1cnc(OC2CCC2)nc1)N1CCC(F)(F)CC1)c1cccc2nc(N3CCOCC3)ccc12` (stereo not shown) [Compound 239], the IC50 is 53.7 nM.
The result for `CC(=O)N1CCN(c2ncc(C(CNC(=O)c3cccc4nc(NCC5CC5)ccc34)N3CCC(F)(F)CC3)cn2)CC1` (stereo not shown) [Compound 240] reads 57.5 nM; that for `CC(C)Oc1ncc(C(CNC(=O)c2cccc3nc(N4CCOCC4)ccc23)N2CCOCC2)cn1` (stereo not shown) [Compound 241], 117 nM.
The result for `CC(C)Oc1ncc(C(CNC(=O)c2cccc3nc(NC4CC4)ccc23)N2CCOCC2)cn1` (stereo not shown) [Compound 242] reads 115 nM; that for `CCOc1ncc(C(CNC(=O)c2cccc3nc(NCC4CC4)ccc23)N2CCOCC2)cn1` (stereo not shown) [Compound 243], 50.1 nM; that for `CC(C)c1ncc(C(CNC(=O)c2cccc3nc(NCC4CC4)ccc23)N2CCOCC2)cn1` (stereo not shown) [Compound 244], 79.4 nM.
The result for `CN(C)c1ncc(C(CNC(=O)c2cccc3nc(NCC4CC4)ccc23)N2CCOCC2)cn1` (stereo not shown) [Compound 245] reads 170 nM; that for `O=C(NCC(c1cnc(OCC2CC2)nc1)N1CCC(F)(F)CC1)c1cccc2nc(N3CCOCC3)ccc12` (stereo not shown) [Compound 246], 32.4 nM; that for `O=C(NCC(c1cnc(OCC2CC2)nc1)N1CCC(F)(F)CC1)c1cccc2nc(NC3CC3)ccc12` (stereo not shown) [Compound 247], 20.9 nM.
Consider `CC(C)Oc1ncc(C(CNC(=O)c2cccc3nc(NCC4CC4)ccc23)N2CCC(F)(F)CC2)cn1` (stereo not shown) [Compound 248], for which the IC50 was 33.1 nM.
The result for `O=C(NCC(c1cnc(C2CCCC2)nc1)N1CCC(F)(F)CC1)c1cccc2nc(N3CCOCC3)ccc12` (stereo not shown) [Compound 249] reads 51.3 nM.
As for `CC(=O)N1CCN(c2ncc(C(CNC(=O)c3cccc4nc(N5CCOCC5)ccc34)N3CCC(F)(F)CC3)cn2)CC1` (stereo not shown) [Compound 250], the IC50 is 77.6 nM.
Turning to `CC(=O)N1CCN(c2ncc(C(CNC(=O)c3cccc4nc(NC5CC5)ccc34)N3CCC(F)(F)CC3)cn2)CC1` (stereo not shown) [Compound 251], the IC50 is 64.6 nM.
The result for `O=C(NCC(c1cnc(N2CCOCC2)nc1)N1CCC(F)(F)CC1)c1cccc2nc(NCC3CC3)ccc12` (stereo not shown) [Compound 252] reads 49 nM; that for `CCOc1ncc(C(CNC(=O)c2cccc3nc(N4CCOCC4)ccc23)N2CCC(F)(F)CC2)cn1` (stereo not shown) [Compound 253], 36.3 nM.
The result for `CCOc1ncc(C(CNC(=O)c2cccc3nc(NC4CC4)ccc23)N2CCC(F)(F)CC2)cn1` (stereo not shown) [Compound 254] reads 29.5 nM; that for `O=C(NCC(c1cncnc1)N1CCC(F)(F)CC1)c1cccc2nc(NC3CC3)ccc12` (stereo not shown) [Compound 256], 44.7 nM; that for `CCOc1ncc(C(CNC(=O)c2cccc3nc(NCC4CC4)ccc23)N2CCC(F)(F)CC2)cn1` (stereo not shown) [Compound 257], 26.3 nM.
The result for `CC(C)c1ncc(C(CNC(=O)c2cccc3nc(NCC4CC4)ccc23)N2CCC(F)(F)CC2)cn1` (stereo not shown) [Compound 258] reads 44.7 nM; that for `O=C(NCC(c1cnc(N2CCCC2)nc1)N1CCOCC1)c1cccc2nc(NC3CC3)ccc12` (stereo not shown) [Compound 259], 97.7 nM.
Regarding `COc1ncc(C(CNC(=O)c2cccc3nc(NCC4CC4)ccc23)N2CCC(F)(F)CC2)cn1` (stereo not shown) [Compound 260], the IC50 was 27.5 nM.
The result for `CC(C)c1ncc(C(CNC(=O)c2cccc3nc(NC4CC4)ccc23)N2CCC(F)(F)CC2)cn1` (stereo not shown) [Compound 261] reads 37.2 nM; that for `O=C(NCC(c1cnc(N2CCCC2)nc1)N1CCC(F)(F)CC1)c1cccc2nc(NCC3CC3)ccc12` (stereo not shown) [Compound 262], 56.2 nM; that for `O=C(NCC(c1cnc(NC2CC2)nc1)N1CCC(F)(F)CC1)c1cccc2nc(NCC3CC3)ccc12` (stereo not shown) [Compound 263], 37.2 nM.
The result for `O=C(NCC(c1cnc(N2CCCC2)nc1)N1CCOCC1)c1cccc2nc(NCC3CC3)ccc12` (stereo not shown) [Compound 264] reads 77.6 nM; that for `CC(C)c1ncc(C(CNC(=O)c2cccc3nc(N4CCOCC4)ccc23)N2CCC(F)(F)CC2)cn1` (stereo not shown) [Compound 265], 64.6 nM.
The result for `CN(C)c1ncc(C(CNC(=O)c2cccc3nc(NCC4CC4)ccc23)N2CCC(F)(F)CC2)cn1` (stereo not shown) [Compound 266] reads 50.1 nM; that for `Nc1ncc(C(CNC(=O)c2cccc3nc(NCC4CC4)ccc23)N2CCC(F)(F)CC2)cn1` (stereo not shown) [Compound 267], 115 nM; that for `O=C(NCC(c1cncnc1)N1CCC(F)(F)CC1)c1cccc2nc(N3CCOCC3)ccc12` (stereo not shown) [Compound 268], 33.1 nM.
In the case of `O=C(NCC(c1cnc(N2CCOCC2)nc1)N1CCC(F)(F)CC1)c1cccc2nc(N3CCOCC3)ccc12` (stereo not shown) [Compound 269], the IC50 was 229 nM.
The result for `O=C(NCC(c1cnc(NC2CC2)nc1)N1CCC(F)(F)CC1)c1cccc2nc(NC3CC3)ccc12` (stereo not shown) [Compound 270] reads 102 nM; that for `CC1CN(c2ccc3c(C(=O)NCC(c4cnc(C(F)(F)F)nc4)N4CCOCC4)cccc3n2)CCN1` (stereo not shown) [Compound 271], 107 nM; that for `CC(C)N(C)c1ccc2c(C(=O)NCC(c3cnc(C(F)(F)F)nc3)N3CCOCC3)cccc2n1` (stereo not shown) [Compound 272], 60.3 nM.
`CC1(C)CCN(c2ccc3c(C(=O)NCC(c4cnc(C(F)(F)F)nc4)N4CCOCC4)cccc3n2)CC1` (stereo not shown) [Compound 273]: the IC50 is 112 nM.
The result for `CCC1CN(c2ccc3c(C(=O)NCC(c4cnc(C(F)(F)F)nc4)N4CCOCC4)cccc3n2)CCN1` (stereo not shown) [Compound 274] reads 145 nM; that for `O=C(NCC(c1cnc(C(F)(F)F)nc1)N1CCOCC1)c1cccc2nc(NCC3CCCC3)ccc12` (stereo not shown) [Compound 275], 70.8 nM; that for `CC(C)(C)C1CCN(c2ccc3c(C(=O)NCC(c4cnc(C(F)(F)F)nc4)N4CCOCC4)cccc3n2)CC1` (stereo not shown) [Compound 276], 813 nM.
The result for `CC(C)OC1CCN(c2ccc3c(C(=O)NCC(c4cnc(C(F)(F)F)nc4)N4CCOCC4)cccc3n2)CC1` (stereo not shown) [Compound 277] reads 46.8 nM; that for `COCC(C)Nc1ccc2c(C(=O)NCC(c3cnc(C(F)(F)F)nc3)N3CCOCC3)cccc2n1` (stereo not shown) [Compound 278], 87.1 nM; that for `CCN(CC)c1ccc2c(C(=O)NCC(c3cnc(C(F)(F)F)nc3)N3CCOCC3)cccc2n1` (stereo not shown) [Compound 279], 77.6 nM.
As for `CC(C)CN1CCN(c2ccc3c(C(=O)NCC(c4cnc(C(F)(F)F)nc4)N4CCOCC4)cccc3n2)CC1` (stereo not shown) [Compound 280], the IC50 is 95.5 nM.
`COCCN1CCN(c2ccc3c(C(=O)NCC(c4cnc(C(F)(F)F)nc4)N4CCOCC4)cccc3n2)CC1` (stereo not shown) [Compound 281]: the IC50 was 75.9 nM.
The result for `CCc1ncc(C(CNC(=O)c2cccc3nc(N4CCCC4)ccc23)N2CCC(F)(F)CC2)cn1` (stereo not shown) [Compound 282] reads 75.9 nM; that for `O=C(NCC(c1cnc(-c2ccccc2)nc1)N1CCC(F)(F)CC1)c1cccc2nc(N3CCCC3)ccc12` (stereo not shown) [Compound 283], 115 nM; that for `CC(C)Oc1ncc(C(CNC(=O)c2cccc3nc(N4CCCC4)ccc23)N2CCOCC2)cn1` (stereo not shown) [Compound 284], 67.6 nM.
The result for `CC(C)N1CCN(c2ccc3c(C(=O)NCC(c4cnc(N5CCCC5)nc4)N4CCOCC4)cccc3n2)CC1` (stereo not shown) [Compound 285] reads 158 nM.
The result for `COc1ncc(C(CNC(=O)c2cccc3nc(N4CCCC4)ccc23)N2CCC(F)(F)CC2)cn1` (stereo not shown) [Compound 286] reads 38 nM; that for `O=C(NCC(c1cnc(N2CCNCC2)nc1)N1CCC(F)(F)CC1)c1cccc2nc(N3CCOCC3)ccc12` (stereo not shown) [Compound 287], 105 nM; that for `CC(C)c1ncc(C(CNC(=O)c2cccc3nc(N4CCN(C(C)C)CC4)ccc23)N2CCOCC2)cn1` (stereo not shown) [Compound 288], 135 nM.
